Laboratory results as given in patent US20240252497A1, “USE OF COMPLEMENT FACTOR D INHIBITOR FOR TREATMENT OF GEOGRAPHIC ATROPHY SECONDARY TO AGE-RELATED MACULAR DEGENERATION” (Alexion Pharmaceuticals, Inc., priority 2021, published 2024).

Tests used:
[1] = Ocular distribution of Compound 1 after oral administration; format: in vivo
Source text: As an orally administered small molecule, Compound 1 is advantageous over therapeutic agents being investigated for the use in treating GA, which rely in intravitreal administration. In this regard, oral CFD inhibitors, such as Compound 1, not only provide GA patients with a more convenient and accessible option for therapy, but also help reduce the patient and caregiver burden for by lowering the need for clinical visits and minimize the risk of ocular injection-related adverse events. […] Given the overall pharmaceutical profile of Compound 1, the present disclosure provides that a treatment regimen with Compound 1 leads to better patient compliance and improved clinical outcomes in patients with GA.

[2] = MAD study (tolerability, liver enzymes); format: in vivo, human; details: high doses, after dosing was ceased
Description: The 100 mg BID, 200 mg BID, and 400 mg QD dose regimens proposed for this study are based on simulation results. […] Based on data from the literature, retina and choroid RPE on the retinal side are more likely to be the target eye tissues. However, the choroid RPE on the capillary bed side cannot be completely ruled out as a potential target. The proposed doses allow for the assessment of two different dosing intervals, i.e., BID vs QD. The 400 mg QD dosing regimen, if shown to be safe and effective, would be more convenient for patients and encourage better compliance relative to bid dosing. An up to 2-fold uncertainty of model prediction on PK and APH inhibition in the target eye tissues is anticipated as the physiological eye parameters in humans were translated from Dutch-Belted rabbits. […] The elevations were transient and not considered of clinical significance. […] A dose taper was instituted in subsequent studies as a risk mitigation measure.

With `CC(=O)c1nn(CC(=O)N2C[C@H](F)C[C@H]2C(=O)Nc2cccc(Br)n2)c2ccc(-c3cnc(C)nc3)cc12` [Compound 1, (2S,4R)-1-(2-(3-acetyl-5-(2-methylpyrimidin-5-yl)-1H-indazol-1-yl)acetyl)-N-(6-bromopyridin-2-yl)-4-fluoropyrrolidine-2-carboxamide] the blood-retina barrier crossing [1] was “cross the blood-retina barrier”, the “retention in ocular tissues after oral administration” value ([1]; choroid and retinal pigment epithelium (RPE)) was “selective retention in ocular tissues containing melanin” and the ALT elevations [2] was “ALT elevations were observed at high doses in 2 subjects after dosing was ceased”.
